Drawing on patent US8415482B2, “Proline derivatives” (National Health Research Institutes, priority 2009, dated 2013), this text covers EC50 for 27 molecules.

A value given as a limit tells only on which side of the number the result lay.

This assay relates to HCV replication. Description: Inhibiting HCV replication, Ava5-EG(Δ4AB)SEAP reporter-based cell line, SEAP activity. To be noted: Hepatitis C virus, 72 h, Ava5-EG(Δ4AB)SEAP cells; 48 hours + additional 24 hours treatment; SEAP activity in culture medium; read-out: EC50 values (i.e., the concentration of a test compound at which 50% HCV replication is inhibited). The procedure:
The inhibitory activity of compounds of this invention against HCV replication was assessed using Ava5-EG(Δ4AB)SEAP, a reporter-based cell line, according to the methods described in Lee et al., Anal. Biochem., 316:162-70 (2003) and Lee et al., J. Virol Methods, 116:27-33 (2004). Briefly, Ava5-EG(Δ4AB)SEAP cells were cultured in a medium containing 500 μg/mL G418 (geneticin) and 10 μg/mL blasticidin in a 5% CO2 incubator. G418 and blasticidin were purchased from Invitrogen (Carlsbad, Calif.). The cells were seeded in a 96-well plate (5×10^3 cells/100 μL-well) and incubated at 37° C. for 24 hours. They were then treated with a solution of a test compound in DMSO at various concentrations. After 48 hours, the culture medium in each well was replaced with a fresh medium containing the test compound at the same concentrations to remove secreted alkaline phosphatase (SEAP) accumulated in the culture medium, if any. The cells were cultured for additional 24 hours. The culture medium was then collected and tested for SEAP activity using a Phospha-Light assay kit (Tropix, Foster, Calif., USA).
Turning to `CC(C)(C)OC(=O)N[C@@H](C(=O)N1CCC[C@H]1c1ncc(-c2ccc(-c3ccc(-c4cnc([C@@H]5CCCN5C(=O)[C@H](NC(=O)OC(C)(C)C)c5ccccc5)s4)cc3)cc2)s1)c1ccccc1` [Compound 6a, di-tert-butyl (1R,1′R)-2,2′-((2S,2′S)-2,2′-(5,5′-(biphenyl-4,4′-diyl)bis(thiazole-5,2-diyl))bis(pyrro-lidine-2,1-diyl))bis(2-oxo-1-phenylethane-2,1-diyl)dicarbamate], the EC50 was at most 500 nM. Take `O=C(N[C@@H](C(=O)N1CCC[C@H]1c1ncc(-c2ccc(-c3ccc(-c4cnc([C@@H]5CCCN5C(=O)[C@H](NC(=O)C5CC5)c5ccccc5)s4)cc3)cc2)s1)c1ccccc1)C1CC1` [Compound 7a-A, N,N′-(1R,1′R)-2,2′-((2S,2′S)-2,2′-(5,5′-(biphenyl-4,4′-diyl)bis(thiazole-5,2-diyl))bis(pyrrolidine-2,1-diyl))bis(2-oxo-1-phenylethane-2,1-diyl)dicyclopropanecarboxamide]: the EC50 was at most 500 nM. The same measure for `O=C(N[C@@H](C(=O)N1CCC[C@H]1c1ncc(-c2ccc(-c3ccc(-c4cnc([C@@H]5CCCN5C(=O)[C@H](NC(=O)N5CCOCC5)c5ccccc5)s4)cc3)cc2)s1)c1ccccc1)N1CCOCC1` [Compound 7a-B]: at most 500 nM. In the case of `O=C(N[C@@H](C(=O)N1C[C@H](F)C[C@H]1c1ncc(-c2ccc(-c3ccc(-c4cnc([C@@H]5C[C@@H](F)CN5C(=O)[C@H](NC(=O)C5CC5)c5ccccc5)s4)cc3)cc2)s1)c1ccccc1)C1CC1` [Compound 7b-A] it was at most 500 nM; in that of `O=C(N[C@@H](C(=O)N1C[C@H](F)C[C@H]1c1ncc(-c2ccc(-c3ccc(-c4cnc([C@@H]5C[C@@H](F)CN5C(=O)[C@H](NC(=O)N5CCOCC5)c5ccccc5)s4)cc3)cc2)s1)c1ccccc1)N1CCOCC1` [Compound 7b-B], at most 500 nM. In the case of `O=C(N[C@@H](C(=O)N1C[C@@H](F)C[C@H]1c1ncc(-c2ccc(-c3ccc(-c4cnc([C@@H]5C[C@H](F)CN5C(=O)[C@H](NC(=O)C5CC5)c5ccccc5)s4)cc3)cc2)s1)c1ccccc1)C1CC1` [Compound 7c-A] it was at most 500 nM; in that of `O=C(N[C@@H](C(=O)N1C[C@@H](F)C[C@H]1c1ncc(-c2ccc(-c3ccc(-c4cnc([C@@H]5C[C@H](F)CN5C(=O)[C@H](NC(=O)N5CCOCC5)c5ccccc5)s4)cc3)cc2)s1)c1ccccc1)N1CCOCC1` [Compound 7c-B], at most 500 nM. Take `CC(C)(C)OC(=O)N[C@@H](C(=O)N1CCC[C@H]1c1nc(-c2ccc(-c3ccc(-c4noc([C@@H]5CCCN5C(=O)[C@H](NC(=O)OC(C)(C)C)c5ccccc5)n4)cc3)cc2)c[nH]1)c1ccccc1` [Compound 25a]: the EC50 is at most 500 nM. In the case of `O=C(N[C@@H](C(=O)N1CCC[C@H]1c1nc(-c2ccc(-c3ccc(-c4noc([C@@H]5CCCN5C(=O)[C@H](NC(=O)C5CC5)c5ccccc5)n4)cc3)cc2)c[nH]1)c1ccccc1)C1CC1` [Compound 26a] it was at most 500 nM; in that of `CC(C)(C)OC(=O)N[C@@H](C(=O)N1CCC[C@H]1c1nc(-c2ccc(-c3ccc(-c4csc([C@@H]5CCCN5C(=O)[C@H](NC(=O)OC(C)(C)C)c5ccccc5)n4)cc3)cc2)no1)c1ccccc1` [Compound 29a], at most 500 nM. In the case of `O=C(N[C@@H](C(=O)N1CCC[C@H]1c1nc(-c2ccc(-c3ccc(-c4csc([C@@H]5CCCN5C(=O)[C@H](NC(=O)C5CC5)c5ccccc5)n4)cc3)cc2)no1)c1ccccc1)C1CC1` [Compound 30a] it was at most 500 nM. The same measure for `CC(C)(C)OC(=O)N[C@@H](C(=O)N1CCC[C@H]1c1nc(-c2ccc(-c3ccc(-c4cnc([C@@H]5CCCN5C(=O)[C@H](NC(=O)OC(C)(C)C)c5ccccc5)s4)cc3)cc2)no1)c1ccccc1` [Compound 33a]: at most 500 nM; for `O=C(N[C@@H](C(=O)N1CCC[C@H]1c1nc(-c2ccc(-c3ccc(-c4cnc([C@@H]5CCCN5C(=O)[C@H](NC(=O)C5CC5)c5ccccc5)s4)cc3)cc2)no1)c1ccccc1)C1CC1` [Compound 34a]: at most 500 nM; for `CC(C)(C)OC(=O)N[C@@H](C(=O)N1CCC[C@H]1c1ncc(-c2ccc(-c3ccc(-c4csc([C@@H]5CCCN5C(=O)[C@H](NC(=O)OC(C)(C)C)c5ccccc5)n4)cc3)cc2)[nH]1)c1ccccc1` [Compound 37a]: at most 500 nM. In the case of `O=C(N[C@@H](C(=O)N1CCC[C@H]1c1ncc(-c2ccc(-c3ccc(-c4csc([C@@H]5CCCN5C(=O)[C@H](NC(=O)C5CC5)c5ccccc5)n4)cc3)cc2)[nH]1)c1ccccc1)C1CC1` [Compound 38a], the EC50 is at most 500 nM. In the case of `CC(C)(C)OC(=O)N[C@@H](C(=O)N1CCC[C@H]1c1ncc(-c2ccc(-c3ccc(-c4cnc([C@@H]5CCCN5C(=O)[C@H](NC(=O)OC(C)(C)C)c5ccccc5)s4)cc3)cc2)[nH]1)c1ccccc1` [Compound 41a] it was at most 500 nM. The same measure for `O=C(N[C@@H](C(=O)N1CCC[C@H]1c1ncc(-c2ccc(-c3ccc(-c4cnc([C@@H]5CCCN5C(=O)[C@H](NC(=O)C5CC5)c5ccccc5)s4)cc3)cc2)[nH]1)c1ccccc1)C1CC1` [Compound 42a, N—((R)-2-((S)-2-(5-(4′-(2-((S)-1-((R)-2-(cyclopropanecarboxamido)-2-phenylacetyl)pyrrolidin-2-yl)-1H-imidazol-4-yl)biphenyl-4-yl)thiazol-2-yl)pyrrolidin-1-yl)-2-oxo-1-phenyl-ethyl)cyclopropanecarboxamide]: at most 500 nM. The same measure for `CC(C)(C)OC(=O)N[C@@H](C(=O)N1CCC[C@H]1c1nc(-c2ccc(-c3ccc(-c4cnc([C@@H]5CCCN5C(=O)[C@H](NC(=O)OC(C)(C)C)c5ccccc5)s4)cc3)cc2)cs1)c1ccccc1` [Compound 45a]: at most 500 nM.

Take `O=C(N[C@@H](C(=O)N1CCC[C@H]1c1nc(-c2ccc(-c3ccc(-c4cnc([C@@H]5CCCN5C(=O)[C@H](NC(=O)C5CC5)c5ccccc5)s4)cc3)cc2)cs1)c1ccccc1)C1CC1` [Compound 46a]: the EC50 was at most 500 nM. As for `CC(=O)N[C@H](C(=O)N1CCC[C@H]1c1ncc(-c2ccc(-c3ccc(-c4cnc([C@@H]5CCCN5C(=O)[C@H](NC(C)=O)c5ccccc5)s4)cc3)cc2)s1)c1ccccc1` [Compound 51a], the EC50 is at most 500 nM. The same measure for `CCCCCC(=O)N[C@@H](C(=O)N1CCC[C@H]1c1ncc(-c2ccc(-c3ccc(-c4cnc([C@@H]5CCCN5C(=O)[C@H](NC(=O)CCCCC)c5ccccc5)s4)cc3)cc2)s1)c1ccccc1` [Compound 58a]: at most 500 nM; for `CC(C)C(=O)N[C@H](C(=O)N1CCC[C@H]1c1ncc(-c2ccc(-c3ccc(-c4cnc([C@@H]5CCCN5C(=O)[C@H](NC(=O)C(C)C)c5ccccc5)s4)cc3)cc2)s1)c1ccccc1` [Compound 61a]: at most 500 nM.

Turning to `O=C(N[C@H](C(=O)N1CCC[C@H]1c1ncc(-c2ccc(-c3ccc(-c4cnc([C@@H]5CCCN5C(=O)[C@H](NC(=O)C5CCC5)c5ccccc5)s4)cc3)cc2)s1)c1ccccc1)C1CCC1` [Compound 67a], the EC50 is at most 500 nM. The same measure for `O=C(N[C@@H](C(=O)N1CCC[C@H]1c1ncc(-c2ccc(-c3ccc(-c4cnc([C@@H]5CCCN5C(=O)[C@H](NC(=O)C5CCCCC5)c5ccccc5)s4)cc3)cc2)s1)c1ccccc1)C1CCCCC1` [Compound 70a]: at most 500 nM; for `O=C(Cc1ccccc1)N[C@@H](C(=O)N1CCC[C@H]1c1ncc(-c2ccc(-c3ccc(-c4cnc([C@@H]5CCCN5C(=O)[C@H](NC(=O)Cc5ccccc5)c5ccccc5)s4)cc3)cc2)s1)c1ccccc1` [Compound 74a]: at most 500 nM. The same measure for `O=C(N[C@@H](C(=O)N1CCC[C@H]1c1ncc(-c2ccc(-c3ccc(-c4cnc([C@@H]5CCCN5C(=O)[C@H](NC(=O)c5ccco5)c5ccccc5)s4)cc3)cc2)s1)c1ccccc1)c1ccco1` [Compound 76a]: at most 500 nM; for `O=C(N[C@@H](C(=O)N1CCC[C@H]1c1ncc(-c2ccc(-c3ccc(-c4cnc([C@@H]5CCCN5C(=O)[C@H](NC(=O)c5ccncc5)c5ccccc5)s4)cc3)cc2)s1)c1ccccc1)c1ccncc1` [Compound 84a]: at most 500 nM.
